Patent US8524917B2, “6-substituted indole-3-carboxylic acid amide compounds having sphingosine-1-phosphate (S1P) receptor antagonist biological activity” (Allergan, Inc., priority 2007, dated 2013)
Read-outs that look alike come from different tables or passages of the source.

Biological target: human S1P3 receptor (Homo sapiens (Human), UniProt Q99500)
Assay: Activation or block of activation of human S1P3 receptor, Ca+2 FLIPR assay
Format: cell-based
Conditions: for IC50: read-out: S1P3 IC50; for Kb: second concentration in the cell, read-out: S1P3 Kb
Method: Compounds were assessed for their ability to activate or block activation of the human S1P3 receptor in T24 cells stably expressing the human S1P3 receptor. Ten thousand cells/well were plated into 384-well poly-D-lysine coated plates one day prior to use. The growth media for the S1P3 receptor expressing cell line was McCoy's 5A medium supplemented with 10% charcoal-treated fetal bovine serum (FBS), 1% antibiotic-antimycotic and 400 μg/ml geneticin. On the day of the experiment, the cells were washed twice with Hank's Balanced Salt Solution supplemented with 20 mM HEPES (HBSS/Hepes buffer). […] Extracellular dye was removed by washing the cell plates four times prior to placing the plates in the FLIPR (Fluorometric Imaging Plate Reader, Molecular Devices). Ligands were diluted in HBSS/Hepes buffer and prepared in 384-well microplates. The positive control, Sphingosine-1-Phosphate (S1P), was diluted in HBSS/Hepes buffer with 4 mg/ml fatty acid free bovine serum albumin. The FLIPR transferred 12.5 μl from the ligand microplate to the cell plate and took fluorescent measurements for 75 seconds, taking readings every second, and then for 2.5 minutes, taking readings every 10 seconds. […] IC50 values were determined through a […] analysis using the Levenburg Marquardt algorithm.

[1] = T24 cells stably expressing the human S1P3 receptor, FLIPR Ca+2 response, 0.61 nM to 10,000 nM
[2] = T24 cells stably expressing the human S1P3 receptor, value in brackets
[3] = T24 cells stably expressing the human S1P3 receptor

human S1P3 receptor, sequence (Q99500 whole entry): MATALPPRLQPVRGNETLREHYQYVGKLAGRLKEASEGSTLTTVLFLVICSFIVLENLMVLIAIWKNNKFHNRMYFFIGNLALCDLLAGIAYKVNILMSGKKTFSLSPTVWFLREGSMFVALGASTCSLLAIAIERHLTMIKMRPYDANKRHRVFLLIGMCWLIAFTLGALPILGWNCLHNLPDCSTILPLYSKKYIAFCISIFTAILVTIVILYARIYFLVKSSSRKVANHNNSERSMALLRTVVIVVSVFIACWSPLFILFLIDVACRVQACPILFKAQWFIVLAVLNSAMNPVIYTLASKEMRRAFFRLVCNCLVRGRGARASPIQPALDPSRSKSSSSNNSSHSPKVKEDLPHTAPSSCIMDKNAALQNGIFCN

## CC(C)Oc1ccc2c(C(=O)NCc3ccc(F)c(F)c3)c(C=O)n(Cc3ccccn3)c2c1 [Compound 105, N-(3,4-Difluorobenzyl)-2-formyl-6-isopropoxy-1-(pyridin-2-ylmethyl)-1H-indole-3-carboxamide]
[1]
  IC50: 485 nM
[2]
  S1P3 (% inh): 98%

## C#CCOc1ccc2c(C(=O)NCc3ccc(F)c(F)c3)c(C(C)C)n(Cc3ccccn3)c2c1
[1]
  IC50: 324 nM
[2]
  S1P3 (% inh): 99%

## COc1ccc2c(C(=O)NCc3ccc(F)c(F)c3)c(C(C)C)n(Cc3ccccc3)c2c1 [Compound 7, 1-Benzyl-N-(3,4-difluorobenzyl)-2-isopropyl-6-methoxy-1H-indole-3-carboxamide]
[1]
  IC50: 560 nM
[2]
  S1P3 (% inh): 98%

## CC(C)c1c(C(=O)NCc2ccc(F)c(F)c2)c2ccc([N+](=O)[O-])cc2n1Cc1ccccc1 [Compound 124, 1-Benzyl-N-(3,4-difluorobenzyl)-2-isopropyl-6-nitro-1H-indole-3-carboxamide]
  S1P3 (% inh): 242 nM (90) %
  IC50: 242 nM

## CC(C)c1c(C(=O)NCc2ccc(F)c(F)c2)c2ccc(OC3CCCO3)cc2n1Cc1ccccn1 (stereo not drawn) [drawing 164]
[1]
  IC50: 9 nM
[2]
  S1P3 (% inh): 100%

## CC(C)c1c(C(=O)NCc2cncc(F)c2)c2ccc(C3=N[C@@H](C)CO3)cc2n1Cc1ccccc1 [Compound 72, (S)-1-Benzyl-N-((5-fluoropyridin-3-yl)methyl)-2-isopropyl-6-(4-methyl-4,5-dihydrooxazol-2-yl)-1H-indole-3-carboxamide]
  S1P3 (% inh): 43 nM (99) %
  IC50: 43 nM

## CC(C)NCc1ccc2c(C(=O)NCc3ccc(F)c(F)c3)c(C(C)C)n(Cc3ccccc3)c2c1
[1]
  IC50: 2300 nM
[2]
  S1P3 (% inh): 84%

## CC(C)Oc1ccc2c(C(=O)NCc3ccc(F)c(F)c3)c(C3=NCCO3)n(Cc3ccccn3)c2c1 [Compound 104, N-(3,4-Difluorobenzyl)-2-(4,5-dihydrooxazol-2-yl)-6-isopropoxy-1-(pyridin-2-ylmethyl)-1H-indole-3-carboxamide]
[1]
  IC50: 3900 nM
[2]
  S1P3 (% inh): 50%

## CC(C)c1c(C(=O)NCc2ccc(F)cc2)c2ccc(NC3CCCC3)cc2n1Cc1ccccc1 [Compound 192, 1-Benzyl-6-(cyclopentylamino)-N-(4-fluorobenzyl)-2-isopropyl-1H-indole-3-carboxamide]
  S1P3 (% inh): 70 nM (100) %
  IC50: 70 nM

## [2H]C([2H])([2H])C([2H])(Oc1ccc2c(C(=O)NCc3ccc(F)c(F)c3)c(C(=C)C)n(Cc3ccccn3)c2c1)C([2H])([2H])[2H] [Compound 199, N-(3,4-Difluorobenzyl)-2-isopropenyl-6-isopropoxy-1-(pyridin-2-ylmethyl)-1H-indole-3-carboxamide-d7]
[1]
  IC50: 51 nM
[2]
  S1P3 (% inh): 100%

## CC(C)C(=O)Nc1ccc2c(C(=O)NCc3ccc(F)c(F)c3)c(C(C)C)n(Cc3ccccc3)c2c1 [Compound 127, 1-Benzyl-N-(3,4-difluorobenzyl)-6-isobutyramido-2-isopropyl-1H-indole-3-carboxamide]
[1]
  IC50: 890 nM
[2]
  S1P3 (% inh): 97%

## CCOC(=O)c1ccc2c(C(=O)NCc3ccc(F)c(F)c3)c(C(C)C)n(Cc3ncco3)c2c1 [Compound 47, Ethyl 3-(3,4-Difluorobenzylcarbamoyl)-2-isopropyl-1-(oxazol-2-ylmethyl)-1H-indole-6-carboxylate]
[1]
  IC50: 350 nM
[2]
  S1P3 (% inh): 100%

## CC(C)c1c(C(=O)NCc2ccc(F)c(F)c2)c2ccc(OC3CCOCC3)cc2n1Cc1ccccn1 [Compound 143, N-(3,4-Difluorobenzyl)-2-isopropyl-1-(pyridin-2-ylmethyl)-6-(tetrahydro-2H-pyran-4-yloxy)-1H-indole-3-carboxamide]
[1]
  IC50: 36 nM
[2]
  S1P3 (% inh): 99%

## CCCOc1ccc2c(C(=O)NCc3ccc(F)c(F)c3)c(C(C)C)n(Cc3ccccc3)c2c1 [Compound 10, 1-Benzyl-N-(3,4-difluorobenzyl)-2-isopropyl-6-propoxy-1H-indole-3-carboxamide]
[3]
  Kb: 2 nM

## CC(C)c1c(C(=O)NCc2ccc(F)c(F)c2)c2ccc(N3CCCC3=O)cc2n1Cc1ccccc1 [Compound 128, 1-Benzyl-N-(3,4-difluorobenzyl)-2-isopropyl-6-(2-oxopyrrolidin-1-yl)-1H-indole-3-carboxamide]
[1]
  IC50: 502 nM
[2]
  S1P3 (% inh): 99%

## CC(C)c1c(C(=O)NCc2ccc(F)c(F)c2)c2ccc(NC3CCOC3)cc2n1Cc1ccccc1 (stereo not drawn) [Compound 126, 1-Benzyl-N-(3,4-difluorobenzyl)-2-isopropyl-6-(tetrahydrofuran-3-ylamino)-1H-indole-3-carboxamide]
[1]
  IC50: 177 nM
[2]
  S1P3 (% inh): 100%

## CC(C)c1c(C(=O)NCc2ccc(F)c(F)c2)c2ccc(Oc3nccs3)cc2n1Cc1ncco1 [Compound 214, N-(3,4-Difluorobenzyl)-2-isopropyl-1-(oxazol-2-ylmethyl)-6-(thiazol-2-yloxy)-1H-indole-3-carboxamide]
[1]
  IC50: 53 nM
[2]
  S1P3 (% inh): 100%

## CCOC(=O)c1ccc2c(C(=O)NCc3ccc(F)cc3)c(C(C)C)n(Cc3ccccn3)c2c1 [Compound 50, Ethyl 3-(4-Fluorobenzylcarbamoyl)-2-isopropyl-1-(pyridin-2-ylmethyl)-1H-indole-6-carboxylate]
[1]
  IC50: 69 nM
[2]
  S1P3 (% inh): 100%

## CCOC(=O)c1ccc2c(C(=O)NCc3cncc(F)c3)c(C(C)C)n(Cc3ccccc3)c2c1 [Compound 44, Ethyl 1-Benzyl-3-((5-fluoropyridin-3-yl)methylcarbamoyl)-2-isopropyl-1H-indole-6-carboxylate]
  S1P3 (% inh): 24 nM (100) %
  IC50: 24 nM

## CCCCOc1ccc2c(C(=O)NCc3ccc(F)c(F)c3)c(C(C)C)n(Cc3ccccc3)c2c1 [Compound 12, 1-Benzyl-6-butoxy-N-(3,4-difluorobenzyl)-2-isopropyl-1H-indole-3-carboxamide]
[1]
  IC50: 3 nM
[2]
  S1P3 (% inh): 100%

## CC(C)c1c(C(=O)NCc2ccc(F)c(F)c2)c2ccc(OC3CCOC3)cc2n1Cc1ccccn1 (stereo not drawn)
[1]
  IC50: 19 nM
[3]
  Kb: 21 nM
[2]
  S1P3 (% inh): 100%

## CCCOc1ccc2c(C(=O)NCc3cccnc3)c(C(C)C)n(Cc3ccccn3)c2c1
[1]
  IC50: 1200 nM
[2]
  S1P3 (% inh): 99%

## CC(C)NC(=O)c1ccc2c(C(=O)NCc3ccc(F)c(F)c3)c(C(C)C)n(Cc3ccccc3)c2c1
[1]
  IC50: 634 nM
[2]
  S1P3 (% inh): 100%

## CC(C)c1c(C(=O)NCc2ccc(F)c(F)c2)c2ccc(NC3CCC3)cc2n1Cc1ccccc1 [Compound 190, 1-Benzyl-6-(cyclobutylamino)-N-(3,4-difluorobenzyl)-2-isopropyl-1H-indole-3-carboxamide]
  S1P3 (% inh): 13 nM (100) %
  IC50: 13 nM

## CC(C)Cn1c(C(C)C)c(C(=O)NCc2ccc(F)c(F)c2)c2ccc(OC3CCCC3)cc21 [Compound 159, 6-(Cyclopentyloxy)-N-(3,4-difluorobenzyl)-1-isobutyl-2-isopropyl-1H-indole-3-carboxamide]
[1]
  IC50: 41 nM
[2]
  S1P3 (% inh): 96%

## CCCNCc1ccc2c(C(=O)NCc3ccc(F)c(F)c3)c(C(C)C)n(Cc3ccccc3)c2c1
[1]
  IC50: 2600 nM
[2]
  S1P3 (% inh): 77%

## CC(C)c1c(C(=O)NCc2ccc(F)c(F)c2)c2ccc(N3CCOCC3)cc2n1Cc1ccccn1 [Compound 207, N-(3,4-Difluorobenzyl)-2-isopropyl-6-morpholino-1-(pyridin-2-ylmethyl)-1H-indole-3-carboxamide]
[1]
  IC50: 130 nM
[2]
  S1P3 (% inh): 97%

## CCOC(=O)c1ccc2c(C(=O)NCc3cc(F)cc(F)c3)c(C(C)C)n(Cc3ccccn3)c2c1 [Compound 48, Ethyl 3-(3,5-Difluorobenzylcarbamoyl)-2-isopropyl-1-(pyridin-2-ylmethyl)-1H-indole-6-carboxylate]
[1]
  IC50: 24 nM
[2]
  S1P3 (% inh): 100%

## CC(C)c1c(C(=O)NCc2ccc(F)c(F)c2)c2ccc(Oc3ncc(Br)s3)cc2n1Cc1ncco1 [Compound 215, 6-(5-Bromothiazol-2-yloxy)-N-(3,4-difluorobenzyl)-2-isopropyl-1-(oxazol-2-ylmethyl)-1H-indole-3-carboxamide]
[1]
  IC50: 23 nM
[2]
  S1P3 (% inh): 99%

## CC(C)c1c(C(=O)NCc2ccc(F)c(F)c2)c2ccc(/C=N/OC(C)(C)C)cc2n1Cc1ccccc1
[1]
  IC50: 145 nM
[2]
  S1P3 (% inh): 99%

## CC(C)c1c(C(=O)NCc2ccc(C(F)(F)F)nc2)c2ccc(OC3CCCC3)cc2n1Cc1ccccn1 [Compound 142, 6-(Cyclopentyloxy)-2-isopropyl-1-(pyridin-2-ylmethyl)-N-((6-(trifluoromethyl)pyridin-3-yl)methyl)-1H-indole-3-carboxamide]
[1]
  IC50: 48 nM
[2]
  S1P3 (% inh): 99%

## CC(C)c1c(C(=O)NCc2ccc(F)c(F)c2)c2ccc(OCCN(C)C)cc2n1Cc1ccccc1 [Compound 18, 1-Benzyl-N-(3,4-difluorobenzyl)-6-(2-(dimethylamino)ethoxy)-2-isopropyl-1H-indole-3-carboxamide]
[1]
  IC50: 242 nM
[2]
  S1P3 (% inh): 94%

## COC(=O)c1c(C(=O)NCc2ccc(F)c(F)c2)c2ccc(OC(C)C)cc2n1Cc1ccccn1 [Compound 226, Methyl 3-(3,4-Difluorobenzylcarbamoyl)-6-isopropoxy-1-(pyridin-2-ylmethyl)-1H-indole-2-carboxylate]
[1]
  IC50: 87 nM
[2]
  S1P3 (% inh): 100%
